Reference: patent US20050276765A1, “Preventing skin damage” (priority 2004, published 2005)

How the values were obtained:
[1] = test system: mice ears; assay: Mouse ear thickness after a single UVB irradiation and topical application for five days
Description: Prior to the experiment, the thickness of mice ears (FVB strain, female, 7 weeks of age, n=3-4/group) was measured with a thickness gauge (Mitsutoyo Corp.). […] The following day, ear thickness of both ears was measured. This procedure was continued for five consecutive days.
In a second experiment, solution was applied to each ear after exposure to UVB irradiation. The following day, the thickness of both ears was measured. UVB irradiation was only applied once and solutions were administered a total of five times (once a day/consecutive five days).

[2] = test system: back skin of mice; assay: Primary irritation score on clipped back skin of mice; type: in vivo, mice (FVB strain); settings: for irritation category (0-4): 5 μl topical daily
Description: A third primary irritation experiment was performed. Back skin of mice (FVB strain, female, 7 weeks of age, n=3-4/group) was clipped of hair with an electric clipper and 5 μl of each solution was topically applied. The following day, irritation was evaluated according to five categories (0: no irritation, 1; slight irritation, 2:clear irritation, 3:strong irritation, 4:severe irritation) and 5 μl of each solution was topically applied. This procedure was continued for a total of five consecutive days.

[3] = test system: hairless Skh-1 mice; assay: UVB-induced chronic skin damage: skin wrinkling score after 10 weeks; type: in vivo, mice (hairless Skh-1)
Description: Mice of groups 1 and 3 were exposed to UVB irradiation, using fluorescent lamps (Southern New England Ultraviolet). The height of the lamps was adjusted to deliver 0.35 mW/cm^2 at the dorsal skin surface of the mice. Samples were applied (100 μl) on the back of UVB irradiated and non-UVB irradiated mice. This procedure was repeated three times weekly for 10 weeks. […] The total cumulative dose of UVB was 6.54 J/cm^2.
After 10 weeks, skin wrinkling was evaluated by two independent persons according to five categories (0: no wrinkle; 1: slight wrinkle, 2: clear wrinkle, 3: strong wrinkle; 4: severe wrinkle).

SMILES: Cn1c(=O)c2c(ncn2C)n(C)c1=O [caffeine]
- ear thickness compared to solvents (DMSO or acetone) ([1]; 2% in DMSO or 1.2% in acetone, with or without UVB): did not increase ear thickness
- primary irritancy (ear) ([1]; concentration of 2% in DMSO or 1.2% in acetone): did not have primary irritancy
- irritation category (0-4) ([2]; 0.5% caffeine in DMSO, day 0): 0
- irritation category (0-4) ([2]; 0.5% caffeine in DMSO, day 1): 0
- irritation category (0-4) ([2]; 0.5% caffeine in DMSO, day 2): 0
- irritation category (0-4) ([2]; 0.5% caffeine in DMSO, day 3): 0
- irritation category (0-4) ([2]; 0.5% caffeine in DMSO, day 4): 0
- irritation category (0-4) ([2]; 0.5% caffeine in DMSO, day 5): 0
- irritation category (0-4) ([2]; 0.5% caffeine in acetone, day 0): 0
- irritation category (0-4) ([2]; 0.5% caffeine in acetone, day 1): 0
- irritation category (0-4) ([2]; 0.5% caffeine in acetone, day 2): 0
- irritation category (0-4) ([2]; 0.5% caffeine in acetone, day 3): 0
- irritation category (0-4) ([2]; 0.5% caffeine in acetone, day 4): 0
- irritation category (0-4) ([2]; 0.5% caffeine in acetone, day 5): 0
- irritation category (0-4) ([2]; 1.2% caffeine in acetone, day 0): 0
- irritation category (0-4) ([2]; 1.2% caffeine in acetone, day 1): 0
- irritation category (0-4) ([2]; 1.2% caffeine in acetone, day 2): 0
- irritation category (0-4) ([2]; 1.2% caffeine in acetone, day 3): 0
- irritation category (0-4) ([2]; 1.2% caffeine in acetone, day 4): 0
- irritation category (0-4) ([2]; 1.2% caffeine in acetone, day 5): 0
- irritation category (0-4) ([2]; 2% caffeine in DMSO, day 0): 0
- irritation category (0-4) ([2]; 2% caffeine in DMSO, day 1): 0
- irritation category (0-4) ([2]; 2% caffeine in DMSO, day 2): 0
- irritation category (0-4) ([2]; 2% caffeine in DMSO, day 3): 0
- irritation category (0-4) ([2]; 2% caffeine in DMSO, day 4): 0
- irritation category (0-4) ([2]; 2% caffeine in DMSO, day 5): 0
- irritation in mouse skin ([2]; back skin, five consecutive days): did not cause irritation
- primary irritancy (back skin) ([2]; concentration of 2% in DMSO and 1.2% in acetone): did not have primary irritancy
- UVB-induced wrinkle formation ([3]; 1.2% in acetone, topical, 10 weeks): effective at reducing UVB-induced wrinkle formation
- skin wrinkling score, average ([3]; group 2: No UVB + 1.2% caffeine in acetone, 100 μl on back three times weekly, after 10 weeks, scale 0 no wrinkle to 4 severe wrinkle): 0
